Measured values published in publication PMC10387993, “New pyrimidine-N-β-D-glucosides: synthesis, biological evaluation, and molecular docking investigations” (Turkish Journal of Chemistry, 2023).
Converted amounts (≈) assume the structure as drawn. Read-outs that look alike come from different tables or passages of the source.

Experiments:
Assay type in all cases: cell-based
[1] = LDH cytotoxic activity assay, HeLa; details: human, HeLa cells
Procedure: (§1) The cell lines were cultured in a cell medium (Dulbecco’s modified eagle’s or RPMI 1640) enriched with 10% (v/v) fetal bovine serum and 2% (v/v) Penicillin-Streptomycin (10,000 U/mL). First, old medium was removed out of the flask when the cells reached approximately 80% confluence. Next, cells were taken from the flasks surface using trypsin-EDTA solution and then subjected to centrifugation. Following, the cell pellet was suspended with fresh media and was inoculated into wells.
(§2) Approximately 5 × 10^3 cells in 100 μL were placed into 96-well plates as triplicates and treated with 25, 50, 75, and 100 μg/mL concentrations of test compounds at 37 °C with 5% CO2 for 24 h. LDH activity was obtained by determining absorbance at 492–630 nm using a microplate reader.

S. mutans ATCC 35668 = experiment: Microdilution MIC assay; details: S. mutans ATCC 35668, 24 h at 35 °C
Procedure: (§3) MIC values of the compounds against bacterial strains were determined on the basis of a microwell dilution method. […] […]. Growth of microorganisms was determined visually after incubation for 24 h at 35 °C. The lowest concentration at which there was no visible growth (turbidity) was taken as the MIC.

[2] = test system: P. aeruginosa AGME ATCC 27853; experiment: Microdilution MIC assay; details: Pseudomonas aeruginosa, ATCC27853; P. aeruginosa AGME ATCC 27853, 24 h at 35 °C
Procedure: as §3

[3] = test system: S. aureus MRSA ATCC 46300; experiment: Microdilution MIC assay; details: Staphylococcus aureus; S. aureus MRSA ATCC 46300, 24 h at 35 °C; read-out: MIC
Procedure: as §3

[4] = test system: E. faecalis VRE ATCC 19433; experiment: Microdilution MIC assay; details: Enterococcus faecalis; E. faecalis VRE ATCC 19433, 24 h at 35 °C
Procedure: as §3

E. coli ATCC 25922 = experiment: Microdilution MIC assay; details: Escherichia coli, ATCC25922; E. coli ATCC 25922, 24 h at 35 °C
Procedure: as §3

[5] = test system: A. actinomycetemcomitans ATCC 33384; experiment: Microdilution MIC assay; details: Aggregatibacter actinomycetemcomitans, ATCC33384; A. actinomycetemcomitans ATCC 33384, 24 h at 35 °C
Procedure: as §3

[6] = test system: S. aureus MSSA ATCC 29213; experiment: Microdilution MIC assay; details: S. aureus MSSA ATCC 29213, 24 h at 35 °C
Procedure: as §3

E. coli ESBL ATCC 35218 = experiment: Microdilution MIC assay; details: Escherichia coli, ATCC35218; E. coli ESBL ATCC 35218, 24 h at 35 °C
Procedure: as §3

S. aureus ATCC 25923 = experiment: Microdilution MIC assay; details: Staphylococcus aureus, ATCC25923, 24 h, S. aureus ATCC 25923, 24 h at 35 °C; read-out: MIC
Procedure: as §3

S. gordonii NCTC 7870 = experiment: Microdilution MIC assay; details: Streptococcus gordonii, NCTC7870; S. gordonii NCTC 7870, 24 h at 35 °C
Procedure: as §3

[7] = LDH cytotoxic activity assay, HT29; details: human, HT29 cells; for cytotoxicity at 24 h, 25 μg/mL: HT29, 25 μg/mL; for cytotoxicity at 24 h, 50 μg/mL: HT29, 50 μg/mL; for cytotoxicity at 24 h, 75 μg/mL: HT29, 75 μg/mL; for cytotoxicity at 24 h, 100 μg/mL: HT29, 100 μg/mL
Procedure: as §1, §2

C6 (Rat brain glioma) = experiment: cells; details: Rattus norvegicus; for LC50 (concentration giving 50% net cell loss relative to time zero): read-out: LC50; for GI50 / IC50 / IC (total growth inhibition): C6, MTT; for IC50: read-out: IC50; for IC (total growth inhibition): read-out: TGI
Procedure: as §1
(§4) A cell suspension containing approximately 1 × 10^4 cells in 100 μL was seeded into the wells of 96-well culture plates. […]. The final volume of the wells was set to 200 μL by medium. Cell proliferation assay was evaluated by MTT (yellow tetrazolium MTT (3-(4,5-dimethylthiazolyl-2)-2,5-diphenyltetrazolium bromide) methods. Briefly, an MTT stock solution (5 mg of MTT/mL of distilled water) was filtered and kept at −20 °C until use. The cells were exposed to an MTT reagent (consisting of one parts of MTT stock solutions and nine parts of fresh RPMI 1640 without phenol red) for 4 h to form MTT formazan dye followed by the dye dissolved in DMSO with Sorenson’s buffer for 30 min at room temperature and then the plate was measured at 560 nm, with 690 nm as a reference interval, using a microplate reader. Each experiment was repeated at least three times for each cell line.
(§5) IC50 value is a concentration that inhibits half of the cells in vitro. The half maximal inhibitory concentration (IC50) of the test and control compounds was calculated using XLfit5 or excel spreadsheet and represent in μM at 95% confidence intervals. The proliferation assay results were expressed as the percent inhibition according to the following formula: % Inhibition = [1 - (Absorbance of Treatments /Absorbance of DMSO) × 100]. Three dose response parameters (GI50, TGI, LC50) were calculated according to the following formulas using the absorbance measurements of time zero (Tz), control growth (C), and test growth in the presence of drug (Ti). Growth inhibition of 50% (GI50) was calculated from [(Ti-Tz)/(C-Tz)] × 100 = 50, which is the drug concentration resulting in a 50% reduction in the net growth increase in control cells during the drug incubation. The drug concentration resulting in total growth inhibition (TGI) was calculated from Ti = Tz. The LC50 indicating a net loss of cells following treatment was calculated from [(Ti-Tz)/Tz] × 100 = −50.

Hep3B = experiment: cells; details: Homo sapiens; for GI50 / IC50 / IC (total growth inhibition): MTT; for IC50: read-out: IC50; for IC (total growth inhibition): read-out: TGI; for LC50 (concentration causing 50% net cell loss relative to time zero): read-out: LC50
Procedure: as §1, §4, §5

in vitro = details: human, LC50
Procedure: as §1, §4, §5

normal FL cells = experiment: cells; details: FL normal cells, MTT; for IC50: read-out: IC50; for IC (total growth inhibition): read-out: TGI
Procedure: as §1, §4, §5

[8] = Streptococcus mutans, ATCC35668, 24 h, read-out: MIC
[9] = Staphylococcus aureus, 24 h, read-out: MIC

Row | MIC (S. mutans ATCC 35668; [8]) | MIC [2] | MIC [3] | MIC [4] | MIC (E. coli ATCC 25922) | MIC [5] | MIC [6, 9] | MIC (E. coli ESBL ATCC 35218) | MIC (S. aureus ATCC 25923) | MIC (S. gordonii NCTC 7870) | GI50 (C6 (Rat brain glioma)) | Compound | cytotoxicity at 24 h, 25 μg/mL [1] | cytotoxicity at 24 h, 50 μg/mL [1] | cytotoxicity at 24 h, 75 μg/mL [1] | cytotoxicity at 24 h, 100 μg/mL [1] | cytotoxicity at 24 h, 25 μg/mL [7] | cytotoxicity at 24 h, 50 μg/mL [7] | cytotoxicity at 24 h, 75 μg/mL [7] | cytotoxicity at 24 h, 100 μg/mL [7] | LC50 (concentration giving 50% net cell loss relative to time zero) (C6 (Rat brain glioma)) | also measured
1 | 250 µg/mL (≈ 422 µM) | > 1000 µg/mL | 1000 µg/mL (≈ 1690 µM) | > 1000 µg/mL | > 1000 µg/mL | > 1000 µg/mL | 62.5 to 125 µg/mL (≈ 105 to 211 µM) | > 1000 µg/mL | > 1000 µg/mL | > 1000 µg/mL | 2.1 µg/mL (≈ 3.54 µM) | CC(=O)OC[C@H]1O[C@@H](Nc2nc(-c3cccnc3)cc(-c3ccccc3C)n2)[C@H](OC(C)=O)[C@@H](OC(C)=O)[C@@H]1OC(C)=O [Compound 11, 2,3,4,6-tetra-O-acetyl-N-[4-(2-methylphenyl)-6-pyridin-3-ylpyrimidin-2-yl]-β-D-glucopyranosylamine] | 17.2% | 29.8% | 45% | 49.8% | 36.1% | 49.3% | 63.8% | 90.6% | 578 µg/mL (≈ 975 µM) | MIC [6]: 125 µg/mL (≈ 211 µM); IC50 (C6 (Rat brain glioma)): 21.9 µg/mL (≈ 36.9 µM); IC (total growth inhibition) (C6 (Rat brain glioma)): 8.83 µg/mL; GI50 (Hep3B): 4.25 µg/mL (≈ 7.17 µM); IC50 (Hep3B): > 500 µg/mL; IC (total growth inhibition) (Hep3B): > 500 µg/mL; LC50 (concentration causing 50% net cell loss relative to time zero) (Hep3B): > 500 µg/mL; LC50 (concentration causing 50% net cell loss) (in vitro): > 500 µg/mL; GI50 (normal FL cells): 11.2 µg/mL (≈ 18.8 µM); IC50 (normal FL cells): > 500 µg/mL; IC (total growth inhibition) (normal FL cells): > 500 µg/mL
2 | 62.5 to 125 µg/mL (≈ 105 to 211 µM) | > 1000 µg/mL | > 1000 µg/mL | 1000 µg/mL (≈ 1690 µM) | > 1000 µg/mL | > 1000 µg/mL | 1000 µg/mL (≈ 1690 µM) | > 1000 µg/mL | > 1000 µg/mL | > 1000 µg/mL | 1.4 µg/mL (≈ 2.36 µM) | CC(=O)OC[C@H]1O[C@@H](Nc2nc(-c3ccc(C)cc3)cc(-c3ccccn3)n2)[C@H](OC(C)=O)[C@@H](OC(C)=O)[C@@H]1OC(C)=O [Compound 16, 2,3,4,6-tetra-O-acetyl-N-[4-(4-methylphenyl)-6-pyridin-2-ylpyrimidin-2-yl]-β-D-glucopyranosylamine] | 35.7% | 62.6% | 77.1% | 99.2% | 26.4% | 34.4% | 48.6% | 70.2% | 22.9 µg/mL (≈ 38.6 µM) | MIC (S. mutans ATCC 35668): 125 µg/mL (≈ 211 µM); IC50 (C6 (Rat brain glioma)): 4.38 µg/mL (≈ 7.39 µM); IC (total growth inhibition) (C6 (Rat brain glioma)): 2.8 µg/mL; GI50 (Hep3B): 1.99 µg/mL (≈ 3.36 µM); IC50 (Hep3B): 7.18 µg/mL (≈ 12.1 µM); IC (total growth inhibition) (Hep3B): 7.33 µg/mL; LC50 (concentration causing 50% net cell loss relative to time zero) (Hep3B): 326 µg/mL (≈ 550 µM); LC50 (concentration causing 50% net cell loss) (in vitro): > 500 µg/mL; GI50 (normal FL cells): 1.71 µg/mL (≈ 2.89 µM); IC50 (normal FL cells): 6.31 µg/mL (≈ 10.6 µM); IC (total growth inhibition) (normal FL cells): 6.44 µg/mL
